The text below walks through data of article PMC11324770, “A novel in vitro high-content imaging assay for the prediction of drug-induced lung toxicity” (Archives of Toxicology, 2024).

The test system of one data set is respiratory tract. The arrangement: method as in printed. The settings on record: ref not given, cited from earlier work.
The subject of the next data set is occludin in A549 cells. The data set can be described thus: High-content imaging of junctional occludin staining in A549 cells. As to conditions: for area of junctional staining present at the cell membrane compared to DMSO controls: A549, 24 h, concentration-dependent, Fig. 2 shows TNFα/TGFβ as a combination. Type of data set: cell-based. As to the method:
A549 (ATCC), an alveolar epithelial cell line, and CALU-3 (ATCC), an epithelial cell line, were cultured in Dulbecco’s modified Eagle’s medium (DMEM) supplemented with 10% foetal bovine serum (FBS). 16HBE bronchial epithelial cells, kindly provided by Carl Staples (University of Southampton), were cultured in DMEM supplemented with 10% FBS and 1% non-essential amino acids). All culture media materials were purchased from Thermo Fisher Scientific. For imaging experiments, cells were seeded at 10,000 cells per well in 96-well CellCarrier imaging plates (Perkin Elmer) and cultured for 72 h to allow tight junction formation. All experiments were carried out between passages 3 and 15.
All tested compounds were synthesized internally and provided in 100% DMSO. Compounds were diluted in appropriate media to a 9-point concentration range from 100 µM down to 15 nM with a final concentration of 1% DMSO. Cigarette smoke extract (CSE) was produced by passing smoke from 5 University of Kentucky research cigarettes with filters removed through PBS with an air pump at a rate 0.07 L/min. CSE was diluted in appropriate media to a concentration range of 12% to 0.01%. TNF-α and TGF-β (Thermo Fisher Scientific) were diluted in appropriate media to a concentration range of 50 ng/ml to 0.02 ng/ml. All treatments were for 24 h and terminated by removing media and fixing with 4% paraformaldehyde (PFA). Vehicle (1% DMSO) was included for each plate and all treatments were carried out in duplicate on each plate. All experiments were independently repeated at least 3 times.
Following treatment, cells were washed twice in PBS and fixed in 4% PFA for 20 min at room temperature and permeabilized using 0.5% Triton-X for 15 min at room temperature. Cells were then blocked using 5% goat serum in PBS at room temperature for 1 h. Primary antibodies were applied as per optimized conditions based on manufacturers recommended dilutions overnight at 4 °C. Cells were washed twice in PBS prior to application of secondary antibodies at a dilution of 1:5000 for 1 h at room temperature. Cells were washed twice with PBS and subsequently stained with a mixture of Hoechst and Cell Mask Deep Red at 1:1000 in PBS. Finally, cells were washed twice in PBS and either stored at 4 °C or imaged immediately. Plates were imaged using a MolecularDevices IXC. […] Cell viability was assessed through direct counts of nuclei.
Analysis modules were written using the custom module editor of MetaXpress version 6.5.4.532. […] This thickened outline mask was then applied to the cell mask image and the area of staining was quantified. […] To quantify the amount of occludin staining at the membrane, the final step of the module overlaid the thickened membrane mask with the thickened junction mask. […]

In general, IC50 refers to the concentration that inhibits the measured activity by half. As to `[Cl][Cd][Cl]` [Cadmium chloride], the “Comment (respiratory findings)” value in the data set on respiratory tract (earlier non-clinical or clinical findings) is “Pneumonitis and fibrosis”. Further, the Respiratory safety risk result in the data set on respiratory tract (earlier pivotal toxicology studies in pre-clinical species or clinic) is on record as “Yes”. The “area of junctional staining present at the cell membrane compared to DMSO controls” value (“area … compared to DMSO controls” for short) in the data set with occludin in A549 cells was “significant decrease”. Also, 3.7 µM corresponded to half-maximal inhibition in the data set on occludin in A549 cells (area of occludin staining normalized to cell number and DMSO, 24 h, 9-point range up to 100 µM, NA = no IC50 curve could be established) (IC50).

With TNF-α, the “area … compared to DMSO controls” value with occludin in A549 cells is “significant decrease”.

As to TGF-β, the “area … compared to DMSO controls” value in the data set on occludin in A549 cells is “significant decrease”.
